Values of other authors in US20200016107A1, “COMPOSITION AND METHOD FOR THE TOPICAL TREATMENT OF SEVERE ACNE” (CENTRO INTTERNACIONAL DE COSMIATRÍA, S.A.P.I. DE C.V., priority 2017, published 2020).

Tested on: sebaceous gland
Conditions: oral administration

## CC1=C(/C=C/C(C)=C/C=C/C(C)=C\C(=O)O)C(C)(C)CCC1 [13-cis-retinoic acid]
  effect on sebaceous gland secretion: almost completely suppresses this secretion
  patients with marked improvement: ~100%
